{"source": "patent US20040197338A1", "about": "“Respiratory syncytial virus” (priority 2001, published 2004)", "experiment": "Peptide solubility", "format": "physicochemical", "settings": "for solubility on resuspension: resuspended at 1 mg/ml, other peptides in water", "data": [{"compound": "CC[C@H](C)[C@H](NC(=O)[C@H](CCC(N)=O)NC(=O)[C@@H](NC(=O)[C@H](CCC(=O)O)NC(=O)[C@@H](NC(=O)[C@@H](NC(=O)[C@H](CC(C)C)NC(=O)[C@H](CO)NC(=O)[C@H](C)NC(=O)[C@H](CC(C)C)NC(=O)[C@@H](NC(=O)[C@H](CC(C)C)NC(=O)[C@@H](NC(=O)[C@H](CCC(=O)O)NC(=O)[C@H](Cc1ccccc1)NC(=O)[C@H](CCCCN)NC(=O)[C@H](CCSC)NC(=O)[C@H](CCC(=O)O)NC(=O)[C@H](CCCCN)NC(=O)CN)C(C)C)[C@@H](C)O)[C@@H](C)O)[C@@H](C)O)[C@@H](C)CC)C(=O)O", "note": "[N8]", "values": [{"measurement": "solubility in water / PBS", "value": "solubility problems in water"}, {"measurement": "solubility on resuspension", "value": "required 10% (v/v) acetic acid for solubility"}]}, {"compound": "CC[C@H](C)[C@H](NC(=O)CN)C(=O)N[C@@H](Cc1ccccc1)C(=O)N[C@@H](C)C(=O)NCC(=O)N[C@@H](CC(C)C)C(=O)N[C@@H](Cc1ccccc1)C(=O)N[C@@H](CCSC)C(=O)N[C@@H](CC(N)=O)C(=O)N[C@@H](C)C(=O)N[C@@H](Cc1ccc(O)cc1)C(=O)NCC(=O)N[C@@H](C)C(=O)NCC(=O)N[C@@H](CCC(N)=O)C(=O)N[C@H](C(=O)N[C@@H](CCSC)C(=O)N[C@@H](CC(C)C)C(=O)N[C@@H](CCCNC(=N)N)C(=O)N[C@@H](Cc1c[nH]c2ccccc12)C(=O)O)C(C)C", "note": "[N17]", "values": [{"measurement": "solubility in water / PBS", "value": "solubility problems in water"}, {"measurement": "solubility on resuspension", "value": "required 10% (v/v) acetic acid for solubility"}]}, {"compound": "CC[C@H](C)[C@H](NC(=O)[C@H](CC(C)C)NC(=O)CNC(=O)[C@@H](NC(=O)[C@H](Cc1ccccc1)NC(=O)[C@H](CCCCN)NC(=O)[C@H](Cc1c[nH]cn1)NC(=O)[C@H](CC(N)=O)NC(=O)[C@H](C)NC(=O)[C@H](CC(=O)O)NC(=O)[C@H](CCC(=O)O)NC(=O)[C@@H](NC(=O)[C@@H](NC(=O)[C@H](CC(C)C)NC(=O)[C@H](CC(C)C)NC(=O)[C@H](CCSC)NC(=O)CNC(=O)[C@H](CS)NC(=O)[C@H](CC(C)C)NC(=O)[C@@H](N)CCCCN)[C@@H](C)CC)[C@@H](C)O)[C@@H](C)O)C(=O)O", "note": "[peptide N4]", "values": [{"measurement": "solubility in water / PBS", "value": "soluble in PBS"}]}]}
